We go through seven compounds from patent US20240329286A1, “LIGHT ABSORPTION FILTER, OPTICAL FILTER, MANUFACTURING METHOD FOR OPTICAL FILTER, ORGANIC ELECTROLUMINESCENT DISPLAY DEVICE, INORGANIC ELECTROLUMINESCENT DISPLAY DEVICE, AND LIQUID CRYSTAL DISPLAY DEVICE” (FUJIFILM Corporation, priority 2022, published 2024).

The structures appear in SMILES notation.

The first series is described as follows: pKaH (pKa of the conjugate acid) by titration with sodium hydroxide aqueous solution. The class given is physicochemical. The following applies: water/methanol=50/50 (volume ratio), 25° C. The source says: The pKa can be calculated by dropwise adding a 0.01 mol/L sodium hydroxide aqueous solution to a mixed solution of water/methanol=50/50 (in terms of volume ratio) of a measurement sample (a conjugate acid of the compound B) and reading the amount of the sodium hydroxide aqueous solution that has been dropwise added up to the half-equivalent point.
For the compound `c1ccc(-c2ccnc3ccccc23)cc1` [4-Phenylquinoline], the pKaH was found to be 4.3.

Still in this series, the particulars now being: water/methanol=50/50 (volume ratio), 25° C., Table 2.
On to `Cc1cc(C)c2ccccc2n1` [2,4-dimethylquinoline], for which the “pKaH of compound B” value came to 5.7.
Turning to `Cc1cc2ccccc2cn1` [3-methylisoquinoline], the “pKaH of compound B” value is reported as 5.2.
In the case of `Cc1ccc2ccccc2n1` [2-methylquinoline], the “pKaH of compound B” value amounted to 4.8.
Still for that read-out and setting: the same measure for `c1ccc2ncccc2c1` [Quinoline]: 4.2; for `c1ccc2cnccc2c1` [Isoquinoline]: 4.7.
The same measure, in the same setting: the same measure for `Cc1ccnc2ccccc12` [4-methylquinoline]: 5.1.
